Results published in ChEMBL document CHEMBL3286307, “Imidazo[2,1]thiazol-3-one Derivatives Useful as Diagnostic Agents for Alzheimer's Disease” (ACS Med Chem Lett, 2014).

Assays:
[1] = molecular target: Microtubule-associated protein tau (Homo sapiens, UniProt P10636); experiment: Inhibition of recombinant human microtubule associated protein tau aggregation by Thiazin-red R displacement fluorescence assay
[2] = molecular target: Amyloid-beta precursor protein (Homo sapiens, UniProt P05067); experiment: Inhibition of amyloid beta (unknown origin) aggregation by Thiazin-red R displacement fluorescence assay
Amyloid-beta precursor protein, sequence (P05067 whole entry): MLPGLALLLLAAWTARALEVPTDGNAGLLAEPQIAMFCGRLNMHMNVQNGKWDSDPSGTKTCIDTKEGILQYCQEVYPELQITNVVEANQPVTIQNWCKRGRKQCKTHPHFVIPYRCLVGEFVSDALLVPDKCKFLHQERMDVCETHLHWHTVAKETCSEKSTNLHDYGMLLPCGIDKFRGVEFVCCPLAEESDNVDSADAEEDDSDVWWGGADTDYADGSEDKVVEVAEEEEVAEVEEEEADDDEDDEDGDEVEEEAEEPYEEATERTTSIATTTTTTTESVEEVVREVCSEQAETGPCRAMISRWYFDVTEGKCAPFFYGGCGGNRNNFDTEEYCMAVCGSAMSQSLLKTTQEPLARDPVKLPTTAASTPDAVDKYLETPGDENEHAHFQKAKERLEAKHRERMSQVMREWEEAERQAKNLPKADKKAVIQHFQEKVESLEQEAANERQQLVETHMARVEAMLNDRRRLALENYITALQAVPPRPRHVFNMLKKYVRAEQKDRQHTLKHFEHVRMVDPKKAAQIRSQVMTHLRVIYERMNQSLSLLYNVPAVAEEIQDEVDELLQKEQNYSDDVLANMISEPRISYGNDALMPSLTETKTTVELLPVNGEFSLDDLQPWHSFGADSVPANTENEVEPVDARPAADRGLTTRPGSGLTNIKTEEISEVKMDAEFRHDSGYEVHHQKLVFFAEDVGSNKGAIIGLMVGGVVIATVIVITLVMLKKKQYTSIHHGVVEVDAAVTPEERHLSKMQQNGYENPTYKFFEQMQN

Microtubule-associated protein tau, sequence (P10636 whole entry): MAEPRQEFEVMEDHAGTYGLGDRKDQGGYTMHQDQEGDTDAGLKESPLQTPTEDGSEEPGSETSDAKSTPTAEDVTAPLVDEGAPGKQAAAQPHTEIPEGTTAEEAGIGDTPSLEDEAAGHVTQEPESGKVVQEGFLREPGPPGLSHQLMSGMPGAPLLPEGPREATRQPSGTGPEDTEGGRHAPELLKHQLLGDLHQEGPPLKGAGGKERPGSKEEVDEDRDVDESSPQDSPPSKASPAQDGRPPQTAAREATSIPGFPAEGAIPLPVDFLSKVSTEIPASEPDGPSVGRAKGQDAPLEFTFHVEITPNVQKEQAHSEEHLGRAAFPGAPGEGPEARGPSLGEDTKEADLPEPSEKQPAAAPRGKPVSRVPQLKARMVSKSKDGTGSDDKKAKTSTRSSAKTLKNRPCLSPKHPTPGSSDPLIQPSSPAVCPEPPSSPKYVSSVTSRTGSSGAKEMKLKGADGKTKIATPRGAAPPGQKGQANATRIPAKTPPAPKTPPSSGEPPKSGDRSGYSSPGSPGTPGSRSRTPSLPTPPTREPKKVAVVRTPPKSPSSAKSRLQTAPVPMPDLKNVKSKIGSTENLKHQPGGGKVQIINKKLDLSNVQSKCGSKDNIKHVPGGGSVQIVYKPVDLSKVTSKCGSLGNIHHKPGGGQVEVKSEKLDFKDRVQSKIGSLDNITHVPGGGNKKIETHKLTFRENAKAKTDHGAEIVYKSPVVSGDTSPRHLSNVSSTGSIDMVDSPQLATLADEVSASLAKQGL

| Compound | IC50 [1] [µM] | IC50 [2] [µM] |
| --- | --- | --- |
| COc1cc(/C=c2\sc3nc(-c4ccncc4C)cn3c2=O)ccc1O | 0.079 | > 10 |
| COc1cc(/C=c2\sc3nc(-c4ccncc4C)cn3c2=O)cc(OC)c1O | 0.008 | 0.032 |
| COc1cc(/C=c2\sc3nc(-c4cccc(OC(F)(F)F)c4)cn3c2=O)cc(F)c1O |  | > 10 |
